# Measurements taken from patent US20220015402A1, “Mint Flavor Compositions” (The Procter & Gamble Company, priority 2020, published 2022).
# How the values were obtained:
# [1] = Expert sensory testing of racemic menthol vs (−)-menthol in toothpaste (CREST Cavity) with standard spearmint flavor; format: in vivo
# Procedure: In separate, unpublished internal experiments, perceptual experiences of racemic menthol are quantified via expert sensory testing. The use of a standard spearmint flavor (minimizing extra menthol contribution) compared racemic menthol to (−)-menthol in a toothpaste formulation (CREST Cavity). There are several sensory observations taken from these experiments. […] These aromatic notes appear during brushing and disappear after 5-10 minutes post expectoration and are more pronounced as concentrations increase.
# [2] = Comparison of cooling attributes of (−)-menthol and racemic menthol in a toothpaste (CREST Cavity formulation); format: in vivo
# From the text: The following data helps support the use of racemic menthol to reduce costs of mint flavor compositions herein described. From internal unpublished research, Table B compares replacing (−)-menthol with a racemic menthol in a 1:1 in a toothpaste formulation. Such a direct replacement is not preferred given the reduced cooling profile and olfactory differences; however, a portion of L-menthol is preferably replaced by racemic-menthol to gain cost efficiency while minimizing impact to the overall mint flavor profiles.
# Table B is a comparison of attributes between (—)-menthol and racemic menthol in a toothpaste context (using CREST Cavity formulation).
smiles,measurement,setting,value
"CC1CCC(C(C)C)C(O)C1 (racemic) [Racemic Menthol, racemic menthol]",less potent than (−)-menthol for cooling,[1],25-30%
same,Potency compared to L-Menthol,[2],~0.65-0.7x
same,Time Point at Maximum Cooling,[2],~1 min
same,Maximum Cooling (0-60 scale),"[2]; 60 = greatest amount of cooling, 0 = least",35
same,Maximum Longevity,[2]; cooling,Up to 20 minutes
